Laboratory results reported in patent US20250326722A1 (SHANGHAI HANSOH BIOMEDICAL CO., LTD., priority 2022, published 2025).

Key:
[1] = target: PCSK9 secreted by HepG2 cells (Homo sapiens (Human), UniProt Q8NBP7); experiment: Effect on the concentration of PCSK9 secreted by HepG2 cells (ELISA); assay type: cell-based; conditions: 48 hours incubation, read-out: Inhibitory activity on PCSK9, IC50
Description: • 1. Experimental objective: To detect the inhibitory effect of the compounds on PCSK9. • 2. Experimental instruments and reagents: • 2.1 Instruments:
• CircuLex Human PCSK9 ELISA kit (MBL: CY-8079); • DMEM (Gibco: 31966-021) • FBS (Sigma: S5394) • Compound plate (Thermo: 1353506) • Complete culture medium: DMEM+10% FBS+1×P/S; • Experimental culture medium: DMEM+10% FBS • Cell strain: HepG2 (ATCC: HB-8065)
A self-adhesive seal was applied, the plate was placed on a plate shaker at room temperature, gently shaken, uniformly mixed, and incubated for 1 hour. • 11) The plate was placed on the plate washer, the washing liquid was set to 350 μL per well, and the plate was washed 4 times repeatedly. • 12) 100 μL/well of an HRP-conjugated detection antibody was added, a self-adhesive seal was applied, and the plate was placed on the plate shaker, well mixed uniformly, and incubated for 1 hour. • 13) The plate was placed on the plate washer, the washing liquid was set to 350 μL per well, and the plate was washed 4 times repeatedly. • 14) 100 μL/well of Substrate reagent was added, and the plate was placed in the dark, applied with a self-adhesive seal, placed on the plate shaker, well mixed uniformly, and incubated for 10-20 minutes. • 15) 100 μL/well of Stop solution (1N H2SO4) was added and mixed uniformly. • 16) The optical density (OD) value in each well was measured in sequence at a wavelength of 450 nm by the microplate reader. Detection was carried out within 30 min after the reaction was stopped.
(§1) After the OD values were read by the microplate reader, the OD value of the 0-concentration standard in the standard group was subtracted from the OD values of the standards, control group, and samples to obtain the actual OD values for these wells. A standard curve was plotted with Graphpad and the concentration of the sample was calculated. If the dilution was performed during the sample detection, the calculated sample concentration was necessarily multiplied by the corresponding dilution ratio in the final calculation, which was the actual concentration of the sample. Inhibition rate=(actual concentration in control-actual concentration in sample)/actual concentration in control*100. According to the inhibition rates corresponding to the different concentrations, IC50 was derived by Graphpad.

[2] = tested on: LDLR level in HepG2 cells; experiment: Effect on the LDLR level in HepG2 cells (ELISA); assay type: cell-based, human; parameters: concentration or dose not given beside the values; conditions: 48 hours incubation, LDLR ELISA of lysate
Description: To detect the effect of the compounds on the LDLR protein level.
Envision (PE-Cisbio: 2105-0020), centrifuge (Eppendorf: 5810R), water purifier (THERMO: Pacific T II+Micropure), plate washer (Thermo: […] VERSA), and microplate shaker (Thermo: 88882006)
• 1) HepG2 cell strain was cultured in the complete culture medium at 37° C., 5% CO2 to 70-90% confluence. • 2) The cells were digested and resuspended in the experimental culture medium, inoculation was performed at 25,000 cells/well/200 μL in a 96-well cell culture plate, and the cells were cultured at 37° C., 5% CO2 for 20-24 hours. • 3) The culture medium was removed from the cell culture plate, and the cell culture plate was washed once by adding 200 μl of the experimental culture medium to each well. • 4) Preparation of positive control compound and compound to be tested: the positive control compound and the compound to be tested were diluted on the compound plate. • 5) The diluted compound was added to the cell culture plate at 250 μL per well and incubated at 37° C. and 5% CO2 for 48 hours. • 6) The cell culture medium was removed, the cells were washed with PBS, and 50 μL of the cell lysis buffer and the protein inhibitor were added. • 7) After centrifugation, the lysate was removed and the sample was stored for later use. • 8) Preparation of standard curve: corresponding volumes of Dilution buffer were successively added to respective standard tubes, and the standard was diluted in series by taking the corresponding volume from the original tube or the last concentration tube. • 9) Preparation of washing liquid: 10× Wash buffer was diluted into 1× with Milli-Q for later use. • 10) According to the standard curve wells and sample wells set according to a plate map, 80 μL/well of the corresponding standards and samples were added to the wells, with 2 replicate wells. A well in which no standard was added was used as a background value well. A self-adhesive seal was applied, the plate was placed on a plate shaker at room temperature, gently shaken, uniformly mixed, and incubated for 2 hours. • 11) The plate was placed on the plate washer, the washing liquid was set to 350 μL per well, and the plate was washed 4 times repeatedly. • 12) 200 μL of Human LDLR conjugate was added, a self-adhesive seal was applied, and the plate was placed on the plate shaker, well mixed uniformly, and incubated for 2 hours. • 13) The plate was placed on the plate washer, the washing liquid was set to 350 μL per well, and the plate was washed 4 times repeatedly. • 14) 200 μL/well of Substrate solution was added, and the plate was placed in the dark, applied with a self-adhesive seal, placed on the plate shaker, well mixed uniformly, and incubated for 20 minutes. • 15) 50 μL/well of Stop solution was added and mixed uniformly over 20 min. • 16) The optical density (OD) value in each well was measured in sequence at a wavelength of 450 nm by the microplate reader.
as §1, with “Concentration increase %=(actual” for “Inhibition rate=(actual”, “control*100.” for “control*100. According to the inhibition rates corresponding to the different concentrations, IC50 was derived by Graphpad.”

[3] = Pharmacokinetic determination in mice (plasma); assay type: in vivo, C57BL/6J mice; conditions: C57 mice, PO administration, 5 mpk; for AUC(0-inf) / half-life / MRT / Cmax: male, C57BL/6J, mouse, 5 mg/kg; for AUC(0-inf): read-out: Area under the curve AUC0-∞; for half-life: read-out: Half-life t1/2 (converted); for MRT: read-out: Mean residence time MRT; for Cmax: read-out: Plasma concentration Cmax
Description: C57BL/6J mice were used as test animals to study the pharmacokinetic behavior of the compounds of the present disclosure in mice (plasma) after oral and intravenous administration.
C57 mice, male, purchased from Shanghai Bk Lab Animal Co., Ltd., with animal production license number (SCXK (Shanghai) 2013-0006 NO.311620400001794).
• Preparation of oral drug: 10% Solutol HS15
10 g of Solutol HS15 solid was weighed, dissolved in 90 mL of pure water, uniformly mixed, stirred, and ultrasonically treated to form a clear solution.
The compound of the present disclosure was weighed and dissolved in this solution, uniformly shaken, and ultrasonically treated for 15 minutes to obtain a colorless clear solution with a concentration of 0.5 mg/mL. • Preparation of intravenous drug: 5% DMSO+10% Solutol HS15+85% PBS […]
3 male C57 mice were fasted overnight and then respectively administered PO at a dose of 5 mg/kg and a volume of 10 mL/kg. […]
Before and after administration of mice, 0.04 mL of blood was collected from the orbit at 0.083 (iv), 0.25, 0.5, 1, 2, 4, 8, and 24 hours, and placed in EDTA-K2 test tubes, which was centrifuged at 6000 rpm at 4° C. for 6 min to separate plasma which was stored at −80° C.; and the […] were fed 4 h after administration.
The final determination results were obtained by using an LCMS/MS method.
The main pharmacokinetic parameters were calculated using WinNonlin 6.1.

PCSK9 protein = PCSK9 protein (Homo sapiens (Human), UniProt Q8NBP7); experiment: Binding experiment: surface plasmon resonance (SPR) binding to PCSK9 protein
Description: • 1. Experimental objective: To detect the action of compounds to bind PCSK9 protein by a conventional surface plasmon resonance (SPR) method.

Chain of PCSK9 secreted by HepG2 cells (Q8NBP7 153-692): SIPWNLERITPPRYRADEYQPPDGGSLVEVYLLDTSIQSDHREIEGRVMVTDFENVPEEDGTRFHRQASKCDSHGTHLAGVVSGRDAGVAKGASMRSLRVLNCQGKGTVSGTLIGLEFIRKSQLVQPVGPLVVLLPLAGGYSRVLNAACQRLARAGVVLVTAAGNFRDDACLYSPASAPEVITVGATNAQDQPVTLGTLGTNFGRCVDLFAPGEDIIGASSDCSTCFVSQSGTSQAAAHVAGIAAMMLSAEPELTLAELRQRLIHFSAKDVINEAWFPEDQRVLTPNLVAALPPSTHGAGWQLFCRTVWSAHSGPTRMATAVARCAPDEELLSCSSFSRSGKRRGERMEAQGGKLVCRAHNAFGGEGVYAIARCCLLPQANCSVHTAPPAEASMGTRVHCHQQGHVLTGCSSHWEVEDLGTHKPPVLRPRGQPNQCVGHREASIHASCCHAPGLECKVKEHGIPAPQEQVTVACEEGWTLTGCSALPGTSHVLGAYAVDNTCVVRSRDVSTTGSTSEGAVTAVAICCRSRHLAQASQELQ
Chain of PCSK9 secreted by HepG2 cells (Q8NBP7 31-152 partner): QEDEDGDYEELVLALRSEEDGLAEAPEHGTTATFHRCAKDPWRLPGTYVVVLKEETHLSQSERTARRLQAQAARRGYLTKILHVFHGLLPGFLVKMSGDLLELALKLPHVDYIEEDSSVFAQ
Chain of PCSK9 protein (Q8NBP7 153-692): as the sequence (Q8NBP7 153-692) above

FC(F)Oc1cnc(N[C@H]2CC[C@H](Nc3ccc(-c4cccc5ccnn45)cn3)C2)nc1 [Example 52, (1S,3S)—N1-(5-(difluoromethoxy)pyrimidin-2-yl)-N3-(5-(pyrazolo[1,5-a]pyridin-7-yl)pyridin-2-yl)cyclopentane-1,3-diamine]
IC50 [1]: 11 µM
LDLR expression level [2]: 278%

O=C1c2ccncc2CN1c1ccc(N[C@H]2CC[C@H](Nc3ncc(OC(F)F)cn3)C2)nc1 [Example 76, 2-(6-(((1S,3S)-3-((5-(difluoromethoxy)pyrimidin-2-yl)amino)cyclopentyl)amino)pyridin-3-yl)-2,3-dihydro-1H-pyrrolo[3,4-c]pyridin-1-one]
IC50 [1]: 12.1 µM
LDLR expression level [2]: 156%

CC(C)(C)c1ccc2c(n1)C(=O)N(c1ccc(N[C@H]3CC[C@H](Nc4nc5cc(F)ccn5n4)C3)nc1)C2 [Example 164, 2-(Tert-butyl)-6-(6-(((1S,3S)-3-((7-fluoro-[1,2,4]triazolo[1,5-a]pyridin-2-yl)amino)cyclopentyl)amino)pyridin-3-yl)-5,6-dihydro-7H-pyrrolo[3,4-b]pyridin-7-one]
IC50 [1]: 2.8 µM
LDLR expression level [2]: 254%

N#Cc1cnn2c(-c3ccc(N[C@H]4CC[C@H](Nc5ncc(OC(F)F)cn5)C4)nc3)cccc12 [Example 99, 7-(6-(((1S,3S)-3-((5-(difluoromethoxy)pyrimidin-2-yl)amino)cyclopentyl)amino)-3-yl) pyrazolo[1,5-a]pyridine-3-carbonitrile]
IC50 [1]: 2.6 µM
LDLR expression level [2]: 274%

O=C1c2cc(C(F)(F)F)ncc2CN1c1ccc(N[C@H]2CC[C@H](Nc3nc4cc(F)ccn4n3)C2)nc1 [Example 151, 2-(6-(((1S,3S)-3-((7-fluoro-[1,2,4]triazolo[1,5-a]pyridin-2-yl)amino)cyclopentyl)amino)pyridin-3-yl)-6-(trifluoromethyl)-2,3-dihydro-1H-pyrrolo[3,4-c]pyridin-1-one]
IC50 [1]: 1.3 µM
LDLR expression level [2]: 138%
Time to peak tmax [3]: 2 h
AUC(0-inf) [3]: 97.7 µg·h/mL
half-life [3]: 15.1 h
MRT [3]: 19 h
Cmax [3]: 7.42 µg/mL

O=c1c(-c2ccc(N[C@H]3CC[C@H](Nc4ncc(OC(F)F)cn4)C3)nc2)ccc2ccccn12 [Example 47]
IC50 [1]: 18 µM
LDLR expression level [2]: 859%

FC(F)Oc1cnc(N[C@H]2CC[C@H](Nc3ccc(-c4cccn5ccnc45)cn3)C2)nc1 [Example 53]
IC50 [1]: 24.1 µM
LDLR expression level [2]: 175%

O=C1c2cccnc2CN1c1ccc(NC2CCC(Nc3ncc(OC(F)(F)F)cn3)C2)nc1 [Example 122, 6-(6-(((1S,3S)-3-((5-(trifluoromethoxy)pyrimidin-2-yl)amino)cyclopentylamino)pyridin-3-yl)-6,7-dihydro-5H-pyrrolo[3,4-b]pyridin-5-one]
Kd (PCSK9 protein): 0.0022 µM
IC50 [1]: 1.2 µM
Area under the curve AUC0-∞ [3]: 13.239 µg·h/mL
Half-life t1/2 [3]: 3.2 h
Mean residence time MRT [3]: 4.5 h
Plasma concentration Cmax [3]: 2.333 µg/mL
Time to peak tmax [3]: 0.5 h

Fc1cnn2c(-c3ccc(N[C@H]4CC[C@H](Nc5ncc(OC(F)F)cn5)C4)nc3)cccc12 [Example 102, (1S,3S)—N1-(5-(difluoromethoxy)pyrimidin-2-yl)-N^3-(5-(3-fluoropyrazolo[1,5-a]pyridin-7-yl)pyridin-2-yl)cyclopentane-1,3-diamine]
IC50 [1]: 6.3 µM
LDLR expression level [2]: 215%

O=C1c2cccnc2CN1c1ccc(N[C@H]2CC[C@H](Nc3ncc(C(F)(F)F)nn3)C2)nc1 [Example 145]
Kd (PCSK9 protein): 0.0032 µM
IC50 [1]: 24.5 µM
Time to peak tmax [3]: 0.5 h
AUC(0-inf) [3]: 12.2 µg·h/mL
half-life [3]: 3.8 h
MRT [3]: 4.6 h
Cmax [3]: 2.37 µg/mL

O=C1c2nc(C(F)(F)F)ccc2CN1c1ccc(N[C@H]2CC[C@H](Nc3ncc(C4CC4)nn3)C2)nc1 [Example 159, 6-(6-(((1S,3S)-3-((6-cyclopropyl-1,2,4-triazin-3-yl)amino)cyclopentyl)amino)pyridin-3-yl)-2-(trifluoromethyl)-5,6-dihydro-7H-pyrrolo[3,4-b]pyridin-7-one]
IC50 [1]: 5.9 µM
LDLR expression level [2]: 105%

O=S1(=O)CCCCN1c1ccc(N[C@H]2CC[C@H](Nc3ncc(OC(F)F)cn3)C2)nc1 [Example 92, 2-(6-(((1S,3S)-3-((5-(difluoromethoxy)pyrimidin-2-yl)amino)cyclopentyl)amino)pyridin-3-yl)-1,4-butanesulfolactam]
IC50 [1]: 16.3 µM
LDLR expression level [2]: 105%
